Assay results from paper PMC3132655, “Synthesis and In Vitro Evaluation of Novel Nortropane Derivatives as Potential Radiotracers for Muscarinic M2 Receptors” (International Journal of Molecular Imaging, 2011).
Values joined by “and” are separate entries in the source; they are usually repeats but may differ in a detail not shown here. Equal values may be shown once. Read-outs that look alike come from different tables or passages of the source.

Key:
[1] = biological target: T1, recombinant human muscarinic M3 receptor (Homo sapiens, UniProt P20309); test: competitive binding against [3H]NMS, CHO cell membranes, M3; settings: for selectivity ratio for M2 over M3: ratio of Ki, [3H]NMS; for affinity for M3 (in words): [3H]NMS competition
T1 construct: purchased Perkin Elmer, Waltham, USA; host or cells: CHO cells (membrane suspensions)
Method: (§1) Assays were performed on membrane suspensions from CHO cells expressing either the recombinant human muscarinic M1, M2, or the M3 receptor subtype (Perkin Elmer, Waltham, USA).
(§2) In the competitive binding assays, incubation buffer contained 50 mM TRIS-HCl, 10 mM MgCl2, and 1 mM EDTA (pH 7.4 at 4°C). The assays were incubated during 60 min (M1 or M2 receptor subtypes) or 120 min (M3 receptor subtypes) at 27°C. Nonspecific binding was determined using atropine as a competitor in a concentration of 1 μM.
(§3) In the first series of competitive binding assays, the 6β-4′-iodobenzyl ether (5b) and the 6β-4′-iodobenzoate ester (5c) of 6β-nortropinol, as well as the lead compound 6β-acetoxynortropane (5a), were tested. Protein concentrations for undiluted receptor subtype suspensions were 1.2 mg/mL (M1), 4.3 mg/mL (M2), and 2.0 mg/mL (M3). […] Final competitor concentrations ranged from 1.0 · 10^−10 M to 1.0 · 10^−4 M. After incubation, the reaction was rapidly terminated by vacuum filtration over GF/C glass fiber filters, presoaked in 0.3% polyethylenimine (Sigma-Aldrich, Munich, Germany), and washed 5 times with 1 mL of ice-cold buffer. Filters were placed in vials with 10 mL of scintillation fluid (Ultima Gold, Perkin Elmer, Waltham, USA) and counted in a liquid scintillation counter (Tri-Carb 2900 TR Liquid Scintillation Analyzer, Packard. Software version: 3100).
(§4) In the second series of competitive binding assays, derivative 10a and 10b and the lead compound 6β-acetoxynortropane (5a) were tested. In this series, the protein concentrations for undiluted receptor subtype suspensions were 0.6 mg/mL (M1), 7.5 mg/mL (M2), and 1.5 mg/mL (M3). […] Final competitor concentrations ranged from 1.0 · 10^−10 M to 1.0 · 10^−5 M. After incubation, the assays were filtrated over UniFilter 96 GF/C filter plates, presoaked in 0.3% polyethylenimine (Sigma-Aldrich, Munich, Germany), and washed 9 times with 200 μL of ice-cold buffer. 30 μL of scintillation fluid (MicroScint, Perkin Elmer, Waltham, USA) was added, and the filter plates were counted in a liquid scintillation counter (TopCount 5.0 Liquid Scintillation Analyzer, Perkin Elmer, Waltham, USA).

[2] = biological target: T2, recombinant human muscarinic M2 receptor (Homo sapiens, UniProt P08172); test: competitive binding against [3H]NMS, CHO cell membranes, M2; settings: for affinity for M2 (in words): [3H]NMS competition
T2 construct: purchased Perkin Elmer, Waltham, USA; host or cells: CHO cells (membrane suspensions)
T2 sequence (P08172 1-466): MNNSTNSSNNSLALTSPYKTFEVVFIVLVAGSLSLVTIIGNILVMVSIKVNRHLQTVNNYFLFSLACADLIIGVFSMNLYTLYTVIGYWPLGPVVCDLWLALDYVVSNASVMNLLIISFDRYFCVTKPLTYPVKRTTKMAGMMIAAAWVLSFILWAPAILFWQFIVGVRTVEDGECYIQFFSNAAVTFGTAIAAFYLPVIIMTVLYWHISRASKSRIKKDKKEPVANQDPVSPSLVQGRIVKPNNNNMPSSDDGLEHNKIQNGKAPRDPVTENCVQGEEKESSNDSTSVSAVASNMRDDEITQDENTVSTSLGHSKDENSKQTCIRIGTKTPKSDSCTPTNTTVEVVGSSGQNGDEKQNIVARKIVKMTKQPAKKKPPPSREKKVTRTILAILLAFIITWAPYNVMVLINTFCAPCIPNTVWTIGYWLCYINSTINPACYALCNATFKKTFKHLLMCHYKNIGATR
Method: as §1, §2, §3, §4

[3] = biological target: T3, recombinant human muscarinic M1 receptor (Homo sapiens, UniProt P11229); test: competitive binding against [3H]NMS, CHO cell membranes, M1; settings: for selectivity ratio for M2 over M1: ratio of Ki, [3H]NMS; for affinity for M1 (in words): [3H]NMS competition
T3 construct: purchased Perkin Elmer, Waltham, USA; host or cells: CHO cells (membrane suspensions)
Method: as §1, §2, §3, §4

muscarinic M2 receptor = settings: [3H]QNB as reference tracer; ref 27 (Pei et al.); cited from earlier work
[4] = first series, n = 3, [3H]NMS 0.2 nM, read-out: Ki for M2

T1 sequence (P20309 whole entry): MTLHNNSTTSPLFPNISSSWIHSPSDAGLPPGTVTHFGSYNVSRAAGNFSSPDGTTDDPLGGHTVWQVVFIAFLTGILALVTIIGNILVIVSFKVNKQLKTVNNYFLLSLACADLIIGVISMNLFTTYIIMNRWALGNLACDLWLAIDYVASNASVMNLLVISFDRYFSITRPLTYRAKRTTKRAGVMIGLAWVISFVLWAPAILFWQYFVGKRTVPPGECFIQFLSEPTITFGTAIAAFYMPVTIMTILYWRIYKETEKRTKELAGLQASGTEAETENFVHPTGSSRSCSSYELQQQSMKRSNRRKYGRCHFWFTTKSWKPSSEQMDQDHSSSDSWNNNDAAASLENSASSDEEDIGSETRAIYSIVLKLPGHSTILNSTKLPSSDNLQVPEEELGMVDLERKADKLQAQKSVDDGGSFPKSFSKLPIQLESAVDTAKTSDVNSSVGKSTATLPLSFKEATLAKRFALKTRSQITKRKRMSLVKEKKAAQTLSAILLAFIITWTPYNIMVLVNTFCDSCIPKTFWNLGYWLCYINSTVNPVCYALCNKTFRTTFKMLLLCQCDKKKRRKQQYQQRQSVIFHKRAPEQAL
T3 sequence (P11229 whole entry): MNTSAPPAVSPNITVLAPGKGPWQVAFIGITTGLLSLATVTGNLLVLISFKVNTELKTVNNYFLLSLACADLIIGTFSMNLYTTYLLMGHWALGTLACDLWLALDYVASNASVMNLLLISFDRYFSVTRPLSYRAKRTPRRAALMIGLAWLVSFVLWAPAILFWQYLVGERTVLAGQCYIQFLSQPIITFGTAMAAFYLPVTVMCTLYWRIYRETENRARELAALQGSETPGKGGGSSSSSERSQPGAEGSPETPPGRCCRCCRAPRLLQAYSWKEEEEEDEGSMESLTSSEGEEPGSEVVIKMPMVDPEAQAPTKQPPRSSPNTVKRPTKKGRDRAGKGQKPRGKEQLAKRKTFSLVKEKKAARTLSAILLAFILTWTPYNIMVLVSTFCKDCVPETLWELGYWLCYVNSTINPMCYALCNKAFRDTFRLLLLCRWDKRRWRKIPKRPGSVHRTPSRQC

Compound | selectivity ratio to the M3 ([1]; abstract) | selectivity ratio for M2 over M3 [1] | Ki ([2]; Ki for M2, first series/experiment, n = 3, [3H]NMS 0.2 nM, average ± SD) | Ki ([2]; Ki for M2, second series/experiment, n = 4, [3H]NMS 0.13 nM, average ± SD) | Ki ([2]; Ki to M2 receptors, range over both experiments (abstract)) | selectivity ratio to the M1 ([3]; abstract) | selectivity ratio for M2 over M1 [3] | Ki (muscarinic M2 receptor) | affinity for M3 (in words) [1] | affinity for M2 (in words) [2] | Ki [2, 4] | affinity for M1 (in words) [3]
CC(=O)OC1CC2CCCC1N2 (stereo not drawn) [5a, 6β-acetoxynortropane, reference compound] | 70 fold | ~70 | 88.1 nM and 88 nM | 71.6 nM and 71 nM | 70 to 90 nM | 65 fold | approximately 65 | 2.6 nM | – | – | – | –
Ic1ccc(COC2CC3CCCC2N3)cc1 (stereo not drawn) [5b, 6β-4′-iodobenzyl ether of 6β-nortropinol] | – | 0.2 | – | – | – | – | 0.1 | – | weak affinity | weak affinity | 3000 nM | weak affinity
O=C(OC1CC2CCCC1N2)c1ccc(I)cc1 (stereo not drawn) [5c, 6β-4′-iodobenzoate ester of 6β-nortropinol] | – | 2.0 | – | – | – | – | 0.6 | – | weak affinity | weak affinity | 6800 nM | weak affinity
